Experimental data taken from a melting point compilation (Tetko et al.; mined from patent text by program, amines drawn as free bases though some values may be those of a salt).

Compound | melting point
CSc1sc(-c2ccncc2)c2c1C(=O)CCC2 | 115 to 116 °C
COc1cc(O)c(C#N)c2cc(-c3ccc(O)cc3)oc12 | 286 to 288 °C
C=Cc1c(F)c(F)cc2c(=O)c(C(=O)O)cn(C3CC3)c12 | 183 to 188 °C
CCOC(=O)C(C)(C)NC(=O)c1cccc(C2=NC(C)(C)Cc3cc(OCC)c4c(c32)CC(C)(C)O4)c1 | 155 to 156 °C
CCn1cc(-c2cccc(C(F)(F)F)c2)c(=O)n1-c1ccc(F)cc1 | 92 °C
CC(=O)OCC1OC(OC(C)=O)C(N=[N+]=[N-])C(OC(C)=O)C1OC1OC(COC(C)=O)C(OC(C)=O)C(OC(C)=O)C1OC(C)=O (stereo not drawn) | 77 to 78 °C
NC(=O)c1ccc2c(c1)CCOC2CCN1CCN(c2ccc(Cl)cc2)CC1 (stereo not drawn) | 169 to 171 °C
CCCC(CCC)Nc1nc(C)nc(Oc2c(Br)cc(C(C)(C)O)cc2OC)c1[N+](=O)[O-] | 119 to 120 °C
c1ccc2c(c1)ncc1ncsc12 | 114 to 116 °C
CCCCCCNC(=O)C1=C(C(=O)Nc2cc(OC3CCCC3)c(Cl)cc2F)CCCC1 | 128 to 130 °C
CC(=O)O[C@H]1C=C(Br)C(=O)[C@@H]2O[C@H]12 | 93 to 94 °C
OC/C=C/C=C/c1ccc(OCC(F)(F)C(F)F)cc1 | 95 to 97 °C
CCN(CC)Cc1nnc(-c2ncn3c2CN(C)C(=O)c2ccccc2-3)o1 | 235 to 238 °C
N#Cc1cc(F)c(N)c(F)c1 | 110 to 111 °C
O=C(C=Cc1ccc(F)cc1)N1CCOCC1 | 136 to 137 °C
COC(=O)CCCCCCC1=C(OC)C(=O)CC1=O | 103 °C
O=[N+]([O-])c1cc(F)ccc1NC1CCCCC1 | 93 °C
CNC1=NS(=O)(=O)N=C1NCCCCc1ccc(CN(C)C)o1 | 152 to 153 °C
COc1ccc(N2CCN(CCC3OCCc4ccc(C(N)=O)cc43)CC2)cc1 (stereo not drawn) | 178 to 180 °C
CCc1c(OC)cc(C2CN(C)CC/C2=C\C(=O)OC)cc1OC (stereo not drawn) | 110 to 112 °C
Cc1ccc(-c2nc3ccc(N(C)C)cn3c2CN(C)C(=O)CC(C)C)cc1 | 200 to 202 °C
CCOC(=O)c1ncn2c3ccccc3c(=O)n(C)c12 | 211 to 212 °C
O=C1CNC2=C(CCc3cc(F)ccc32)C1 | 223 to 224 °C
COc1ccc(OC)c(-c2cc(OC)cc3c2OC(CN)C3)c1 (stereo not drawn) | 128 to 130 °C
CCCNC(=S)c1ccc2c(c1)N([C@H](C)CN1CCC[C@@H](C)C1)c1ccccc1S2 (racemic) | 126 °C

Compound | melting point
CCOC(=O)C(C)(C)c1ccc(NC(C)=O)cc1 | 76 to 76.5 °C
CCC(C(C)=CC(CNC(=O)c1ccc(N)nc1)=NO)[N+](=O)[O-] (stereo not drawn) | 190 to 191 °C
CCCCCCCCCCCCC(=O)c1cn(CCCC(=O)O)c2ccccc12 | 76 to 78 °C
NC(=O)N(O)Cc1ccc(-c2ccccn2)s1 | 168 °C
CC1(C)OC(=S)Nc2ccc(-c3csc(C#N)c3)cc21 | 242 to 243 °C
Cc1cc(C=NNC(N)=S)ncc1N | 235 to 236 °C
Nc1ccc(-c2ccc(=O)[nH]n2)cc1Cl | 280 to 282 °C
O=C1Cc2cc(C(=O)CCl)ccc2N1 | 236 to 239 °C
CCOC(=O)C1=Cc2c(F)cccc2OC1C(F)(F)F (stereo not drawn) | 45.5 to 47 °C
OC1COC(n2c(Cl)nc3cc(Cl)c(Cl)cc32)C(O)C1O (stereo not drawn) | 184 °C
CNC(=O)NC(CCSC)C(N)=O (racemic) | 156 to 157 °C
COC(=O)C(O)NC(=O)OC(C)(C)C (stereo not drawn) | 96 to 97 °C
COc1cc2c(cc1OC)C1CC(=O)C3CCCC3N1CC2 (stereo not drawn) | 105 to 114 °C
CCOC(=O)c1cc2cc(-c3ccc(N)cc3)ccc2o1 | 95 to 97 °C
CC(Cl)(Cl)C(=O)NC(=O)C(N)=O | 110 °C
COC(=O)c1cc(C(=O)NCCNC(C)=O)c2cc(Cc3ccc(F)cc3)cnc2c1O | 251 to 253 °C
CN(C)C(=O)N1CCc2ccc(S(N)(=O)=O)cc2CC1 | 192 to 193 °C
CC(=O)N1C(C(=O)O)CSC1C(C)c1ccc(CC(C)C)cc1 (stereo not drawn) | 150 to 153 °C
CC(=O)Nc1ccn(C2CCC(COC(C)=O)O2)c(=O)n1 (stereo not drawn) | 210 to 211 °C
CCOC(=O)c1nc2c(Cl)nc3cc(C(F)(F)F)ccc3n2c1CBr | 196 to 198 °C
Cc1cc([N+](=O)[O-])ccc1N=C1SCC2(CCCC2)N1CC1CCCCC1 | 85 to 87 °C
C=CCOc1cccc(N2C(=O)C3=C(CCCC3)C2=O)c1 | 88 to 90 °C
COc1c(C)cnc(CSc2nc3ncccc3[nH]2)c1C | 186 to 188 °C
Cc1c(Cc2cccc(C(F)(F)F)c2)sc2c(-c3cc(C(=O)NCCO)ccn3)cccc12 | 201 to 202 °C

Now from value to molecule:

melting point | Compound
175 to 178 °C | CN1CCN(C(=O)c2ccccc2)C1=C(Sc1ccccc1)[N+](=O)[O-]
79 °C | Cc1ccc(S(=O)(=O)OCC2COc3ccccc3O2)cc1 (stereo not drawn)
204 to 205 °C | CCCCc1nc2c(N)nc3ccc(OCc4ccccc4)cc3c2n1CCCCNS(=O)(=O)c1ccccc1
134 to 135 °C | CC(C)c1cccc(C(C)C)c1NC(=O)CNC(c1ccccn1)c1ccccn1
150 to 152 °C | CS(=O)(=O)c1cccc(/C=C/C2=CCN(Cc3ccccc3)CC2)c1
139 to 140 °C | O=C(CCCCCCc1ccccc1)Oc1cc(=O)n(-c2ccccc2)c2ncccc12
128 to 130 °C | Cc1ccccc1C(Oc1cc(OCc2ccccc2)ccc1C#N)C(=O)O (racemic)
164 to 166 °C | COc1c(Cl)cccc1NS(=O)(=O)c1cc(S(=O)(=O)Nc2cccc(Cl)c2OC)c2cc(O)ccc2c1
325 to 327 °C | O=C(Nc1ccc(-c2ncc(-c3ccc(NC(=O)C4CCCCCC4)cc3)[nH]2)cc1)c1ccc(Cl)cc1
168 to 170 °C | Cc1ccc(S(=O)(=O)Nc2ccc(C(=O)CN3CCN(c4ccncc4)CC3)cc2)cc1
43 to 45 °C | COc1c(Nc2ccccc2)ccc2ccccc12
169 to 170 °C | CC(Nc1ccccc1)c1ccc(C(C)Nc2ccccc2)cc1 (stereo not drawn)
212 to 213 °C | CC(C)(C)c1cc(-c2c[nH]c(CNC(=O)OCc3ccccc3)n2)cc(C(C)(C)C)c1O
165 °C | Cc1nc2ccccc2c(=O)n1CCN1CCC(C(=O)c2ccc(F)cc2)CC1
135 to 139 °C | COc1cc(OC)nc(Oc2ccc3[nH]c(C)cc3c2C(=O)OCc2ccccc2)n1
77 to 78 °C | CN(C)Cc1ccccc1C(O)c1ccsc1 (stereo not drawn)
130 to 131 °C | O=Cc1ccc(OCCC2Oc3ccccc3N(Cc3cccc(Cl)c3)C2=O)cc1 (stereo not drawn)
199 to 202 °C | O=S(=O)(C(=CNc1ccccc1)S(=O)(=O)c1ccccc1)c1ccccc1
177 to 179 °C | N#Cc1ccccc1-n1nnc2cccnc21
219 to 220 °C | COc1ccc(Nc2nc(NC(=O)C(C)(C)C)nc3[nH]c4ccccc4c23)cc1
140 to 143 °C | COc1ccc(C(=O)NC(=S)NCc2ccccc2C(N)=O)cc1
179 to 180 °C | O=C1OCCC1n1nc(-c2c(-c3ccccc3)nn3ccccc23)ccc1=O (stereo not drawn)
> 250 °C | N=C(N)Nc1nc2c(s1)CCN(C(=O)c1ccc(NC(=O)c3ccccc3-c3ccccc3)cc1)c1ccccc1-2
154 °C | Oc1ccc(C(O)CN2CCC(O)(c3cccc(F)c3)CC2)cc1 (stereo not drawn)
